Laboratory results taken from patent publication US20060271062A1 (priority 2005, published 2006).
Read-outs that look alike come from different tables or passages of the source.

Legend:
lens epithelial cell = conditions: in vitro; cited from earlier work
lens epithelial cells [1] = assay type: cell-based, human
trabecular meshwork = conditions: cited from earlier work
lens epithelial cells [2] = conditions: rabbit, in vivo
[3] = tested on: residual lens epithelial cells; assay type: cell-based, human
[4] = tested on: residual lens epithelial cells; conditions: rabbit, in vivo
[5] = tested on: lens, lens capsule or corneal endothelium and other adjacent tissues; conditions: outflow facility-effective concentrations, infusion for 45-90 min; cited from earlier work
[6] = tested on: residual lens epithelial cells; experiment: Intracapsular latrunculin-B during extracapsular lens extraction in rabbits (Example 1); assay type: in vivo, rabbit; conditions: 2 μM
[7] = 1 ml intracapsular for 10 minutes then 5 min irrigation/aspiration, vehicle 0.25% DMSO, light microscopy of fixed capsular bag

Structure (SMILES): O=c1[nH]cc(F)c(=O)[nH]1 [5-fluorouracil]
- Inhibiting lens epithelial cell proliferation (lens epithelial cell): effective

Structure (SMILES): CC1CNCCN1S(=O)(=O)c1cccc2cnccc12 (stereo not drawn) [H-7, 1-(5-isoquinolinyl-sulfonyl)-2-methylpiperazine]
- PCO formation or severity in comparison to control vehicle (lens epithelial cells [1]): prevent the formation or reduce the severity of PCO
- Outflow facility (trabecular meshwork; monkey, in vivo): significantly increased
- PCO formation or severity in comparison to control vehicle (lens epithelial cells [2]): prevent the formation or reduce the severity of PCO
- Lens epithelial cells removed in comparison to control vehicle, determined by LM [3]: more lens epithelial cells be removed
- Lens epithelial cells removed in comparison to control vehicle, determined by LM [4]: more lens epithelial cells be removed

Structure (SMILES): COc1cc2c(c(OC)c1OC)-c1ccc(OC)c(=O)cc1[C@@H](NC(C)=O)CC2 [colchicine]
- Inhibiting lens epithelial cell proliferation (lens epithelial cell): effective

Structure (SMILES): COc1cccc2c1C(=O)c1c(O)c3c(c(O)c1C2=O)C[C@@](O)(C(C)=O)C[C@@H]3O[C@H]1C[C@H](N)[C@H](O)[C@H](C)O1 [daunomycin]
- Inhibiting lens epithelial cell proliferation (lens epithelial cell): effective

Structure (SMILES): C/C1=C/C(=O)O[C@@H]2C[C@@H](CC[C@H](C)/C=C\CC1)O[C@@](O)([C@@H]1CSC(=O)N1)C2 [latrunculin-B]
- PCO formation or severity in comparison to control vehicle (lens epithelial cells [1]): prevent the formation or reduce the severity of PCO
- Outflow facility (trabecular meshwork; living monkeys, all concentrations named in b65 (latrunculin-B 0.5-2 μM, 0.01% topical; H-7 100-300 μM, 5% topical)): significantly increased
- PCO formation or severity in comparison to control vehicle (lens epithelial cells [2]): prevent the formation or reduce the severity of PCO
- Observable damage to the lens, lens capsule or corneal endothelium and other adjacent tissues [5]: did not induce any observable damage
- Lens epithelial cells removed in comparison to control vehicle, determined by LM [3]: more lens epithelial cells be removed
- Lens epithelial cells removed in comparison to control vehicle, determined by LM [4]: more lens epithelial cells be removed
- Clearance of residual lens epithelial cells during the extracapsular lens extraction [6]: facilitated the clearance
- Area A (dirty area with dense residual materials): treated eye versus vehicle-treated eye [6, 7]: no difference
- Area B (relatively clean area): residual lens epithelial cells versus vehicle-treated eye [6, 7]: fewer residual lens epithelial cells

Structure (SMILES): CO[C@@]12[C@H](COC(N)=O)C3=C(C(=O)C(C)=C(N)C3=O)N1C[C@@H]1N[C@@H]12 [mitomycin C]
- Inhibiting lens epithelial cell proliferation (lens epithelial cell): effective
